Assay results from patent US4382939A, “3-[2-(Mono-and dialkylamino)propyl]-1,2,3,4-tetrahydro-5H-[1]benzopyrano[3,4-C]pyridin- 5-ones useful for treating bronchospastic diseases” (Warner Lambert Company, priority 1982, dated 1983).

Assays:
[1] = tested on: collapse on exposure to an aerosol of methacholine; assay: Anticholinergic test: prolongation of collapse time in conscious guinea pigs exposed to an aerosol of methacholine; format: in vivo; conditions: guinea pig, 25 mg/kg intraperitoneally; 10 minutes methacholine aerosol; Control 1.9 to 2.0
Procedure: The compounds of the invention display anticholinergic properties when tested by the following procedure: Conscious guinea pigs, six at a time, are put into a sealed chamber and exposed for 10 minutes to an aerosol of methacholine. Untreated animals or those treated with vehicle will collapse in 1.9±0.1 minutes. Groups of animals are injected intraperitoneally with 25 mg/kg of test compound and exposed in the chamber under the same conditions. Compounds which prolong the collapse time past that of the control animals are considered active.

[2] = tested on: bronchospasm (pilocarpine nitrate); assay: Inhibition of pilocarpine-induced bronchospasm in anesthetized dogs (pulmonary mechanics); format: in vivo, mongrel dogs; conditions: for ED50: Canis lupus familiaris, iv, anesthetized dogs, cumulative i.v. doses, pilocarpine-induced bronchospasm, read-out: ID50 Bronchospasm; for Pulmonary Selectivity*: dogs, i.v., >1 indicates more potent as a bronchodilator than as an antisecretory agent
Procedure: (§1) In an additional testing procedure, mongrel dogs of either sex, 10.6 to 15.3 kg, are anesthetized with sodium pentobarbital, 30 mg/kg i.v. and then prepared for the monitoring of pulmonary mechanics. A Buxco pulmonary mechanics computer is used to calculate pulmonary resistance, dynamic compliance, and tidal volume from transpulmonary pressure and flow data. Respiratory rate, heart rate and mean arterial blood pressure are also monitored. The femoral vein is cannulated for the delivery of drugs. Pilocarpine nitrate (0.2 mg/kg/hr) is than infused to induce a bronchospasm and salivary flow. […] Salivary output is collected from a catheterized Wharton's duct at five minute intervals. After salivation has stabilized, 3 control collections are taken at 5 minute intervals followed by a series of cumulative i.v. doses of test compound (1, 3, 10, 30, 100, 300, 1000, 3000, and 10,000 μg/kg) that are injected every 5 minutes for 45 minutes. The percent inhibition of both the bronchospasm and salivation are calculated for each dose with a return to pre-pilocarpine resistance levels or cessation of salivation equal to a 100% inhibition.

[3] = tested on: salivation (pilocarpine nitrate); assay: Inhibition of pilocarpine-induced salivation in anesthetized dogs; format: in vivo, mongrel dogs; conditions: Canis lupus familiaris, iv, cumulative i.v. doses, pilocarpine-induced salivary flow, read-out: ID50 Salivation
Procedure: as §1

Row | SMILES | (Minutes Protection) [1] | ED50 [2] | Pulmonary Selectivity* [2] | ED50 [3]
1 | CCNC(C)CN1CCc2c(c(=O)oc3ccccc23)C1 (centres unmarked) [H H H Et H, 3-[2-(Ethylamino)propyl]-1,2,3,4-tetrahydro-5H-[1]benzopyrano[3,4-c]pyridin-5-one] | 10.0 min | 0.21 mg/kg | 6 | 1.23 mg/kg
2 | CCN(C)C(C)CN1CCc2c(c(=O)oc3cc(C)ccc23)C1 (centres unmarked) [H Me H Me Et, 3-[2-(Ethylmethylamino)propyl]-1,2,3,4-tetrahydro-8-methyl-5H-[1]benzopyrano[3,4-c]pyridin-5-one] | 8.8 min | 0.15 mg/kg | 2.2 | 0.336 mg/kg
3 | CCN(CC)C(C)CN1CCc2c(c(=O)oc3cc(C)ccc23)C1 (centres unmarked) [H Me H Et Et, 3-[2-(Diethylamino)propyl]-1,2,3,4-tetrahydro-8-methyl-5H-[1]benzopyrano[3,4-c]pyridin-5-one] | 6.6 min | 0.111 mg/kg | 4.6 | 0.51 mg/kg
4 | CC(CN1CCc2c(c(=O)oc3ccccc23)C1)N(C)C (centres unmarked) [H H H Me Me, 3-[2-(Dimethylamino)propyl]-1,2,3,4-tetrahydro-5H-[1]benzopyrano[3,4-c]pyridin-5-one] | 10.0 min | 0.192 mg/kg | 22 | 4.15 mg/kg
5 | COc1cc2oc(=O)c3c(c2cc1OC)CCN(CC(C)N(C)C)C3.Cl.Cl (centres unmarked) [MeO MeO H Me Me, 3-[2-(Dimethylamino)propyl]-1,2,3,4-tetrahydro-8,9-dimethoxy-5H-[1]benzopyrano[3,4-c]pyridin-5-one dihydrochloride] | 5.2 min | 0.098 mg/kg | 4.5 | 0.441 mg/kg
6 | CCN(CC)C(C)CN1CCc2c(c(=O)oc3ccccc23)C1 (centres unmarked) [H H H Et Et, 3-[2-(Diethylamino)propyl]-1,2,3,4-tetrahydro-5H-[1]benzopyrano[3,4-c]pyridin-5-one] | 10.0 min | 0.336 mg/kg | 7 | 2.31 mg/kg
7 | CCN(CC)C(C)CN1CCc2c(c(=O)oc3cc(OC)c(OC)cc23)C1.Cl.Cl (centres unmarked) [MeO MeO H Et Et, 3-[2-(Diethylamino)propyl]-1,2,3,4-tetrahydro-8,9-dimethoxy-5H-[1]benzopyrano[3,4-c]pyridin-5-one dihydrochloride] | 7.8 min | 0.073 mg/kg | 3.5 | 0.257 mg/kg
8 | Cc1ccc2c3c(c(=O)oc2c1)CN(CC(C)N(C)C)CC3 (centres unmarked) [H Me H Me Me, 3-[2-(Dimethylamino)propyl]-1,2,3,4-tetrahydro-8-methyl-5H-[1]-benzopyrano[3,4-c]pyridin-5-one] | 10.0 min | 0.114 mg/kg | 3.7 | 0.421 mg/kg
9 | CCN(CC(C)C)C(C)CN1CCc2c(c(=O)oc3cc(OC)c(OC)cc23)C1 (centres unmarked) [MeO MeO H Et s-Bu, 3-[2-[Ethyl(2-methylpropyl)amino]propyl]-1,2,3,4-tetrahydro-8,9-dimethoxy-5H-[1]benzopyrano[3,4-c]pyridin-5-one] | 5.4 min | – | – | –
10 | CCCCN(C)C(C)CN1CCc2c(c(=O)oc3cc(OC)ccc23)C1 (centres unmarked) [H MeO H Me n-Bu] | 8.6 min | – | – | –
11 | CCOc1cc2oc(=O)c3c(c2cc1OCC)CCN(CC(C)N(CC)CC)C3.Cl.Cl (centres unmarked) [EtO EtO H Et Et, 3-[2-(Diethylamino)propyl]-1,2,3,4-tetrahydro-8,9-diethoxy-5H-[1]benzopyrano[3,4-c]pyridin-5-one dihydrochloride] | 10.0 min | – | – | –
12 | CCOc1cc2oc(=O)c3c(c2cc1OCC)CCN(CC(C)N(C)C)C3.Cl.Cl (centres unmarked) [EtO EtO H Me Me, 3-[2-(Dimethylamino)propyl]-1,2,3,4-tetrahydro-8,9-diethoxy-5H-[1]benzopyrano[3,4-c]pyridin-5-one dihydrochloride] | 7.3 min | 0.147 mg/kg | 2.1 | 0.303 mg/kg
13 | CNC(C)CN1CCc2c(c(=O)oc3cc(C)c(NC(C)=O)cc23)C1 (centres unmarked) [AcNH Me H Me H, N-[1,3,4,5-Tetrahydro-8-methyl-3-[2-(methylamino)propyl]-5-oxo-2H-[1]benzopyrano[3,4-c]pyridin-9-yl]acetamide] | 10.0 min | – | – | –
14 | CNC(C)CN1CCc2c(c(=O)oc3cc(C)ccc23)C1 (centres unmarked) [H Me H Me H, 1,2,3,4-Tetrahydro-8-methyl-3-[2-(methylamine)propyl]-5H-[1]-benzopyrano[3,4-c]pyridin-5-one] | 2.1 min | – | – | –
